Results published in paper PMC11187217, “Anti-adhesive, anti-biofilm and fungicidal action of newly synthesized gemini quaternary ammonium salts” (Scientific Reports, 2024).

Tests used:
[1] = Critical micelle concentration (CMC), conductometric method; type: physicochemical; conditions: double distilled water, 25 °C
From the text: Alkanoyl chlorides (dodecanoyl, tetradecanoyl and hexadecanoyl) were obtained from Sigma-Aldrich. Anhydrous lactic acid (99%, crystalline) was purchased from Alfal. All solvents were obtained from Avantor Performance Materials or Stanlab and used as received. Methanol (solvent) for counterions exchange reactions was analytical grade (Avantor Performance Materials) and was additionally dried over CaH2 prior synthesis. Deuterated solvents were from Sigma-Aldrich. CMC values of surfactants were measured conductometrically in double distilled water at 25 °C.
Elemental analysis was conducted utilizing Vario EL cube (Elementar, Germany) calibrated on acetanilide. Mass spectra were gain by electrospray ionization mass spectroscopy (ESI–MS) (micrOTOF-Q instrument; Bruker Daltonics, Germany). The ESI–MS aparatus was operated in the positive ion mode (calibrated with the Tunemix™ mixture; Bruker Daltonics; Germany), followed by spectra analysis by the DataAnalysis 3.4 software (Bruker Daltonics, Germany)—resolution of at least 5 ppm. Proton NMR and ^13C NMR measurements were performed on a Bruker AMX-500 spectrometer, utilizing CDCl3 or DMSO-d6 as a solvent. Proton and ^13C chemical shifts (given in ppm) were calibrated to TMS (δ = 0 ppm) as an internal reference. Krafft points were measured according to procedures described in our previous studies Lamch et al.,[82]. Values of CMC for all surfactants were measured utilizing the conductometric method for the compounds’ solutions in milliQ water in the same manner as described in Kula et al.. For all spectra: ^1H NMR, ^13C NMR and ESI–MS as well as appropriate comments see Electronic Supplementary Material.

[2] = test system: Salmonella Typhimurium TA98; assay: Mutagenicity, Ames test; conditions: for Number of colonies: ± SD
Description: The mutagenic potential of the tested gemini QAS was determined using the Ames test[83] using Salmonella Typhimurium TA98 and Salmonella Typhimurium TA100 with defects in histidine biosynthesis. The culture of S. Typhimurium TA98 and S. Typhimurium TA100 was incubated with shaking at 37 °C for 18 h, centrifuged (3000 rpm, 5 min) and OD = 1.5 was determined, at a wavelength of λ = 590 nm. The agar was dissolved and cooled to 42 °C. […] The media were incubated for 48 h at 37 °C. The positive control for the S. Typhimurium TA98 strain was acriflavin (100 μg/ml), and for the S. Typhimurium TA100 strain, sodium azide (15 μg/ml). The negative control was the culture without tested compound and with NaCl (0,9%). After incubation, the colonies were counted and the mutagenicity index (MR) was determined—the ratio of the number of revertants resulting from the mutagenic effect of the tested compound to the number of spontaneous revertants. Experiment was performed in three repetitions.

sheep erythrocytes = assay: Hemolysis test; type: cell-based; conditions: 1.5 h, 37 °C; for Concentration up to which no hemolysis was caused: sheep erythrocytes; for Hemolytic effect on sheep erythrocytes: tested 2.5–1280 µM
Description: The hemolysis test was performed based on the Obłąk et al.[80] method with modification. Sheep blood (5 cm^3) was centrifuged (699 rcf, 15 min), washed several times with PBS buffer (pH 7.4), and suspended in PBS. […] The positive control was 1% SDS and the negative control was PBS. The plates were incubated for 1.5 h at 37 °C. After incubation, the plates were centrifuged (699 rcf, 15 min) and the supernatant was applied to a new titration plate. Absorbance was measured at λ = 540 nm (BioTek 800 TS Absorbance Reader). The experiment was performed in 4 repetitions.

[3] = test system: C. albicans ATCC 10231 biofilm; assay: Biofilm eradication (crystal violet); type: cell-based, Candida albicans; conditions: 24 h biofilm, 4 h exposure, concentration not given (tested 20–1280 µM)
Description: The culture of C. albicans ATCC 10231 was incubated with shaking for 18 h at 37 °C, centrifuged (1000 rcf, 5 min), and the pellet was suspended in PBS (pH 7.4) until OD = 0.8. 100 µl of the obtained culture was spotted into the wells of a 96-well plate and it was incubated at 37 °C for 24 h. After incubation, the culture was removed from the wells and rinsed with sterile distilled water. Then, 100 µl of the tested gemini QAS at concentrations of 20–1280 µM were added and incubated for 4 h at 37 °C. After this time, the compounds were removed, and the plates were rinsed with sterile distilled water and placed in an oven (60 °C, 20 min) to strengthen the formed biofilm. Then 100 µl of crystal violet (0.1%) was added and stained for 5 min. The plates were rinsed with sterile distilled water until there were no traces of purple in the rinse water, and 150 µl of washing mixture (1% SDS, 50 mmol HCl, 100% isopropanol) was added. Absorbance was measured at λ = 590 nm (BioTek 800 TS Absorbance Reader). The negative control was the medium, while the positive control was the culture wells to which the tested gemini QAS had not been added. The experiment was carried out based on a modification of the method of Obłąk et al.. The tested samples were performed in 3 repetitions.

Compound | CMC [1] | Mutagenicity ratio (MR) ([2]; TA98, ¼ MIC) | Number of colonies ([2]; TA98, ¼ MIC) | Mutagenicity ratio (MR) ([2]; TA98, ½ MIC) | Number of colonies ([2]; TA98, ½ MIC) | Concentration up to which no hemolysis was caused (sheep erythrocytes) | Destruction (eradication) of formed C. albicans biofilm [3] | Hemolytic effect on sheep erythrocytes (sheep erythrocytes) | Hemolytic effect on sheep erythrocytes (sheep erythrocytes; listed as dimethylcarbonate with 12-carbon alkyl chains)
CCCCCCCCCCCC(=O)N(CCCN(CCC[N+](C)(C)C)C(=O)CCCCCCCCCCC)CCC[N+](C)(C)C [2xC12BrG3] | 6.4*10^–5 mol/dm^3 | 0.82 | 18.7 ± 2.31 | 7.67 | 174.5 ± 9.19 | ≤ 20 µM | approximately 80% | – | –
CCCCCCCCCCCC(=O)N(CCCN(CCC[N+](C)(C)C)C(=O)CCCCCCCCCCC)CCC[N+](C)(C)C [2xC12MeCO3G3, dimethyl{{3-[N-(3-{N-[3-(dimethylammonium)propyl]dodecylamido}propyl}dodecylamido}propyl}}ammonium dimethylcarbonate] | 1.8*10^–4 mol/dm^3 | 1.57 | 35.8 ± 2.63 | 2.59 | 59.0 ± 2.65 | – | approximately 40% | did not cause hemolysis | no hemolytic effect
CCCCCCCCCCCCCC(=O)N(CCCN(CCC[N+](C)(C)C)C(=O)CCCCCCCCCCCCC)CCC[N+](C)(C)C [2xC14BrG3] | 5.4*10^–6 mol/dm^3 | 1.08 | 29.7 ± 2.08 | 1.75 | 48.0 ± 2.83 | – | approximately 80% | – | –
CCCCCCCCCCCCCCCC(=O)N(CCCN(CCC[N+](C)(C)C)C(=O)CCCCCCCCCCCCCCC)CCC[N+](C)(C)C [2xC16BrG3] | 4.6*10^–7 mol/dm^3 | 1.51 | 34.3 ± 5.69 | 1.85 | 42.0 ± 5.57 | ≤ 80 µM | approximately 80% | – | –
CCCCCCCCCCCCCCCC(=O)N(CCCN(CCC[N+](C)(C)C)C(=O)CCCCCCCCCCCCCCC)CCC[N+](C)(C)C [2xC16LaG3] | 3.7*10^–7 mol/dm^3 | 1.12 | 30.7 ± 1.15 | 1.35 | 37.0 ± 3.46 | ≤ 40 µM | approximately 20% | – | –
CCCCCCCCCCCCCCCC(=O)N(CCCN(CCC[N+](C)(C)C)C(=O)CCCCCCCCCCCCCCC)CCC[N+](C)(C)C [2xC16MeCO3G3, dimethyl{{3-[N-(3-{N-[3-(dimethylammonium)propyl]hexadecylamido}propyl}hexadecylamido}propyl}}ammonium dimethylcarbonate] | 1.6*10^–6 mol/dm^3 | 1.55 | 35.3 ± 5.03 | 1.85 | 42.0 ± 2.16 | ≤ 80 µM | approximately 80% | – | –
